Results from patent publication US12091411B2, “IRAK degraders and uses thereof” (Kymera Therapeutics, Inc., priority 2022, dated 2024).
Where two headings read alike, the source gives them in different places.

Molecular target: T1, IRAK4 (Homo sapiens, UniProt Q9NWZ3)
T1 construct: Degradation of IRAK4 in OCI-LY10 was quantitatively measured using Meso Scale Discovery technology; endogenous in cells; host or cells: OCI-LY10
T1 sequence (Q9NWZ3 1-460): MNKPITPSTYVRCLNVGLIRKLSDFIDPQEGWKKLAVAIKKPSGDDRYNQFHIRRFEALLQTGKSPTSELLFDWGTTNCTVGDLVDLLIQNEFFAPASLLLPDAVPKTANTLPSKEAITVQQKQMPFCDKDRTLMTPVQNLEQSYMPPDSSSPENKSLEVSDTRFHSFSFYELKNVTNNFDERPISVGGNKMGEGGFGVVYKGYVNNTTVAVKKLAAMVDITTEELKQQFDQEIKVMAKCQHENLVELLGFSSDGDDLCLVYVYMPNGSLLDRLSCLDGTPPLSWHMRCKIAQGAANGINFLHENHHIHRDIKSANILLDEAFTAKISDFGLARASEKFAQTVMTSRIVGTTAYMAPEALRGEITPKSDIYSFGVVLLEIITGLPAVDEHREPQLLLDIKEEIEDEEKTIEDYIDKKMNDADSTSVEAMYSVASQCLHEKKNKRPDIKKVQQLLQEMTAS
Assay: IRAK4 MSD Degradation in OCI-LY10
Type: cell-based
Conditions: OCI-LY10 cells, MSD
Procedure, shortened: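 OCI-LY10 cells exposed to 8-point 1:3 compound series (top 1 to 10 μM) for 4 to 24 h at 37 °C, 5% CO2. Lysate IRAK4 quantified by MSD sandwich immunoassay. DC50 from three-parameter logistic fit, binned A (<0.01 μM) to D (>0.2 μM or not tested).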

[1] = 4 hrs incubation, read-out: IRAK4 degradation in OCI-LY10 at 4 hrs: DC50
[2] = 24 hrs incubation, read-out: IRAK4 degradation in OCI-LY10 at 24 hrs: DC50

Cn1c(=O)n(C2CCC(=O)NC2=O)c2cccc(N3CCN(CC4COC5(C4)CN(C[C@H]4CC[C@H](n6cc7cc(NC(=O)c8cccc(C(F)(F)F)n8)ncc7n6)CC4)C5)CC3)c21 (stereo partly drawn) [I-662]
DC50 [1]: > 200 nM | DC50 [2]: > 200 nM

Cn1c(=O)n(C2CCC(=O)NC2=O)c2cccc(N3CCN(CC4COC5(C4)CN(C[C@H]4CC[C@H](n6cc7cc(NC(=O)c8cccc(C(F)(F)F)n8)c(C(C)(C)O)cc7n6)CC4)C5)CC3)c21 (stereo partly drawn) [I-663]
DC50 [1]: > 200 nM | DC50 [2]: > 200 nM

Cn1c(=O)n(C2CCC(=O)NC2=O)c2cccc(C3CCN(CC4COC5(C4)CN(C[C@H]4CC[C@H](n6cc(NC(=O)c7cnn8ccc(N9C[C@H]%10C[C@@H]9CO%10)nc78)c(C(F)F)n6)CC4)C5)CC3)c21 (stereo partly drawn) [I-664]
DC50 [1]: > 200 nM | DC50 [2]: > 200 nM

Cn1c(=O)n(C2CCC(=O)NC2=O)c2cccc(N3CCN(CC4COC5(C4)CN(C[C@H]4CC[C@H](n6cc7cc(NC(=O)c8cccc(C(F)(F)F)n8)ccc7n6)CC4)C5)CC3)c21 (stereo partly drawn) [I-665]
DC50 [1]: > 200 nM

Cn1c(=O)n(C2CCC(=O)NC2=O)c2cccc(N3CCN(CC4COC5(C4)CN(C[C@H]4CC[C@H](n6cc7cc(NC(=O)c8cccc(C(F)(F)F)n8)ncc7n6)CC4)C5)CC3)c21 (stereo partly drawn) [I-666]
DC50 [1]: > 200 nM

Cn1c(=O)n(C2CCC(=O)NC2=O)c2cccc(C3CCN(CC4COC5(C4)CN(C[C@H]4CC[C@H](n6cc7cc(NC(=O)c8cccc(C(F)(F)F)n8)c(C(C)(C)O)cc7n6)CC4)C5)CC3)c21 (stereo partly drawn) [I-667]
DC50 [1]: > 200 nM | DC50 [2]: > 200 nM

Cn1c(=O)n(C2CCC(=O)NC2=O)c2cccc(N3CC4(CCN(C[C@H]5CC[C@H](n6cc7cc(NC(=O)c8cccc(C(F)(F)F)n8)ncc7n6)CC5)CC4(F)F)C3)c21 (stereo partly drawn) [I-668]
DC50 [1]: > 200 nM | DC50 [2]: 10 to 100 nM

Cn1c(=O)n(C2CCC(=O)NC2=O)c2cccc(N3CC4(CCN(C[C@H]5CC[C@H](n6cc(NC(=O)c7cnn8ccc(N9C[C@H]%10C[C@@H]9CO%10)nc78)c(C(F)F)n6)CC5)CC4(F)F)C3)c21 (stereo partly drawn) [I-669]
DC50 [1]: > 200 nM | DC50 [2]: < 10 nM

Cn1c(=O)n(C2CCC(=O)NC2=O)c2cccc(OC3CC(N4CCN(C[C@H]5CC[C@H](n6cc(NC(=O)c7cnn8ccc(N9C[C@H]%10C[C@@H]9CO%10)nc78)c(C(F)F)n6)CC5)CC4)C3)c21 (stereo partly drawn) [I-670]
DC50 [1]: > 200 nM | DC50 [2]: < 10 nM

Cn1c(=O)n(C2CCC(=O)NC2=O)c2cccc(C3CN([C@H]4CCN(C[C@H]5CC[C@H](n6cc7cc(NC(=O)c8cccc(C(F)(F)F)n8)ccc7n6)CC5)C[C@@H]4F)C3)c21 (stereo partly drawn) [I-671]
DC50 [1]: > 200 nM | DC50 [2]: < 10 nM

Cn1c(=O)n(C2CCC(=O)NC2=O)c2cccc(C3CN([C@H]4CCN(C[C@H]5CC[C@H](n6cc7cc(NC(=O)c8cccc(C(F)(F)F)n8)ncc7n6)CC5)C[C@@H]4F)C3)c21 (stereo partly drawn) [I-672]
DC50 [1]: > 200 nM | DC50 [2]: < 10 nM

Cn1c(=O)n(C2CCC(=O)NC2=O)c2cccc(C3CN([C@@H]4CCN(C[C@H]5CC[C@H](n6cc(NC(=O)c7cnn8ccc(N9C[C@H]%10C[C@@H]9CO%10)nc78)c(C(F)F)n6)CC5)C[C@@H]4F)C3)c21 (stereo partly drawn) [I-673]
DC50 [1]: > 200 nM | DC50 [2]: < 10 nM

C[C@H]1CN(c2ccn3ncc(C(=O)Nc4cn([C@H]5CC[C@H](CN6CCN(CC7CN(c8cccc9c8n(C)c(=O)n9C8CCC(=O)NC8=O)C7)CC6)CC5)nc4C(F)F)c3n2)CCO1 (stereo partly drawn) [I-674]
DC50 [1]: > 200 nM | DC50 [2]: < 10 nM

COc1ccc2c(c1N1CC(CN3CCN(C[C@H]4CC[C@H](n5cc(NC(=O)c6cnn7ccc(N8C[C@H]9C[C@@H]8CO9)nc67)c(C(F)F)n5)CC4)CC3)C1)n(C)c(=O)n2C1CCC(=O)NC1=O (stereo partly drawn) [I-675]
DC50 [1]: > 200 nM | DC50 [2]: < 10 nM

Cn1c(=O)n(C2CCC(=O)NC2=O)c2ccc(F)c(N3CC(CN4CCN(C[C@H]5CC[C@H](n6cc(NC(=O)c7cnn8ccc(N9C[C@H]%10C[C@@H]9CO%10)nc78)c(C(F)F)n6)CC5)CC4)C3)c21 (stereo partly drawn) [I-676]
DC50 [1]: > 200 nM | DC50 [2]: < 10 nM

Cn1c(=O)n(C2CCC(=O)NC2=O)c2cccc(N3CCN(C[C@]4(O)CC[C@@H](n5cc6cc(NC(=O)c7cccc(C(F)(F)F)n7)ncc6n5)CC4)CC3)c21 (stereo partly drawn) [I-677]
DC50 [1]: > 200 nM | DC50 [2]: < 10 nM

Cn1c(=O)n(C2CCC(=O)NC2=O)c2cccc(N3CC(F)(CN4CCN(C[C@H]5CC[C@H](n6cc(NC(=O)c7cnn8ccc(N9C[C@H]%10C[C@@H]9CO%10)nc78)c(C(F)F)n6)CC5)CC4)C3)c21 (stereo partly drawn) [I-678]
DC50 [1]: > 200 nM | DC50 [2]: < 10 nM

Cn1c(=O)n(C2CCC(=O)NC2=O)c2cccc(N3CCN([C@@H]4CCN(C[C@H]5CC[C@H](n6cc(NC(=O)c7cnn8ccc(N9C[C@H]%10C[C@@H]9CO%10)nc78)c(C(F)F)n6)CC5)C[C@@H]4F)CC3)c21 (stereo partly drawn) [I-679]
DC50 [1]: > 200 nM | DC50 [2]: < 10 nM

C[C@@H]1CN(c2ccn3ncc(C(=O)Nc4cn([C@H]5CC[C@H](CN6CCN(CC7CN(c8cccc9c8n(C)c(=O)n9C8CCC(=O)NC8=O)C7)CC6)CC5)nc4C(F)F)c3n2)CCO1 (stereo partly drawn) [I-680]
DC50 [1]: > 200 nM | DC50 [2]: < 10 nM

Cn1c(=O)n(C2CCC(=O)NC2=O)c2cccc(C3CN([C@@H]4CCN(C[C@H]5CC[C@H](n6cc(NC(=O)c7cnn8ccc(N9C[C@H]%10C[C@@H]9CO%10)nc78)c(C(F)F)n6)CC5)C[C@H]4F)C3)c21 (stereo partly drawn) [I-681]
DC50 [1]: > 200 nM | DC50 [2]: < 10 nM

Cn1c(=O)n(C2CCC(=O)NC2=O)c2cccc(C3CN(C4CCN(C[C@H]5CC[C@H](n6cc(NC(=O)c7cnn8ccc(N9C[C@H]%10C[C@@H]9CO%10)nc78)c(C(F)F)n6)CC5)CC4(F)F)C3)c21 (stereo partly drawn) [I-682]
DC50 [1]: > 200 nM | DC50 [2]: < 10 nM

Cn1c(=O)n(C2CCC(=O)NC2=O)c2cccc(N3CCN([C@@H]4CCN(C[C@H]5CC[C@H](n6cc(NC(=O)c7cnn8ccc(N9C[C@H]%10C[C@@H]9CO%10)nc78)c(C(F)F)n6)CC5)C[C@H]4F)CC3)c21 (stereo partly drawn) [I-683]
DC50 [1]: > 200 nM | DC50 [2]: < 10 nM

Cn1c(=O)n(C2CCC(=O)NC2=O)c2cccc(N3CCN(C[C@]4(O)CC[C@@H](n5cc6cc(NC(=O)c7cccc(C(F)(F)F)n7)ccc6n5)CC4)CC3)c21 (stereo partly drawn) [I-684]
DC50 [1]: > 200 nM | DC50 [2]: < 10 nM

Cn1c(=O)n(C2CCC(=O)NC2=O)c2cccc(N3CCN(C[C@H]4CC[C@H](n5cc6cc(NC(=O)c7cccc(C#N)n7)ccc6n5)CC4)CC3)c21 (stereo partly drawn) [I-685]
DC50 [1]: > 200 nM | DC50 [2]: < 10 nM

Cn1c(=O)n(C2CCC(=O)NC2=O)c2ccc(F)c(N3CCN(C[C@H]4CC[C@H](n5cc6cc(NC(=O)c7cccc(C#N)n7)ccc6n5)CC4)CC3)c21 (stereo partly drawn) [I-686]
DC50 [1]: > 200 nM | DC50 [2]: 10 to 100 nM

COc1ccc2c(c1N1CCN(CC3CCC(n4cc5cc(NC(=O)c6cccc(C#N)n6)ccc5n4)CC3)CC1)n(C)c(=O)n2C1CCC(=O)NC1=O (stereo not drawn) [I-687]
DC50 [1]: > 200 nM | DC50 [2]: < 10 nM

Cn1c(=O)n(C2CCC(=O)NC2=O)c2cccc(C3COC4(C3)CN(C[C@H]3CC[C@H](n5cc6cc(NC(=O)c7cccc(C(F)(F)F)n7)ncc6n5)CC3)C4)c21 (stereo partly drawn) [I-688]
DC50 [1]: > 200 nM | DC50 [2]: < 10 nM

Cn1c(=O)n(C2CCC(=O)NC2=O)c2cccc(C3COC4(C3)CN(C[C@H]3CC[C@H](n5cc6cc(NC(=O)c7cccc(C(F)(F)F)n7)ccc6n5)CC3)C4)c21 (stereo partly drawn) [I-689]
DC50 [1]: > 200 nM | DC50 [2]: < 10 nM

Cn1c(=O)n(C2CCC(=O)NC2=O)c2cccc([C@@H]3CCN(C[C@]4(O)CC[C@@H](n5cc6cc(NC(=O)c7cccc(C(F)(F)F)n7)ccc6n5)CC4)C[C@H]3F)c21 (stereo partly drawn) [I-690]
DC50 [1]: > 200 nM | DC50 [2]: < 10 nM

Cn1c(=O)n(C2CCC(=O)NC2=O)c2cccc(C#CCOC3CCN(C[C@H]4CC[C@@H](c5ccc(C(F)F)c(NC(=O)c6cnn7ccc(N8C[C@H]9C[C@@H]8CO9)nc67)c5)CC4)CC3)c21 (stereo partly drawn) [I-691]
DC50 [1]: > 200 nM | DC50 [2]: > 200 nM

Cc1cccc(C(=O)Nc2cc3cn([C@H]4CC[C@H](CN5CCN(c6cccc7c6n(C)c(=O)n7C6CCC(=O)NC6=O)CC5)CC4)nc3cn2)n1 (stereo partly drawn) [I-692]
DC50 [1]: > 200 nM | DC50 [2]: < 10 nM

Cn1c(=O)n(C2CCC(=O)NC2=O)c2cccc(N3CCN(C[C@H]4CC[C@H](n5cc6cc(NC(=O)c7cccc(C(F)F)n7)ncc6n5)CC4)CC3)c21 (stereo partly drawn) [I-693]
DC50 [1]: > 200 nM | DC50 [2]: < 10 nM

Cn1c(=O)n(C2CCC(=O)NC2=O)c2ccc(F)c(N3CCN(C[C@H]4CC[C@H](n5cc6cc(NC(=O)c7cccc(C(F)(F)F)n7)ncc6n5)CC4)CC3)c21 (stereo partly drawn) [I-694]
DC50 [1]: > 200 nM | DC50 [2]: < 10 nM

Cc1cccc(C(=O)Nc2cc3cn([C@H]4CC[C@H](CN5CCN(c6c(F)ccc7c6n(C)c(=O)n7C6CCC(=O)NC6=O)CC5)CC4)nc3cn2)n1 (stereo partly drawn) [I-695]
DC50 [1]: > 200 nM | DC50 [2]: < 10 nM

Cn1c(=O)n(C2CCC(=O)NC2=O)c2cccc(OC3CN(C[C@H]4CC[C@H](n5cc6cc(NC(=O)c7cccc(C(F)(F)F)n7)c(C(C)(C)O)cc6n5)CC4)C3)c21 (stereo partly drawn) [I-696]
DC50 [1]: > 200 nM | DC50 [2]: < 10 nM

CN(c1cccc2c1n(C)c(=O)n2C1CCC(=O)NC1=O)C1CN(C[C@H]2CC[C@H](n3cc(NC(=O)c4cnn5ccc(N6C[C@H]7C[C@@H]6CO7)nc45)c(C(F)F)n3)CC2)C1 (stereo partly drawn) [I-697]
DC50 [1]: > 200 nM | DC50 [2]: < 10 nM

CN(c1cccc2c1n(C)c(=O)n2C1CCC(=O)NC1=O)C1CN(C[C@H]2CC[C@H](n3cc4cc(NC(=O)c5cccc(C(F)(F)F)n5)ncc4n3)CC2)C1 (stereo partly drawn) [I-698]
DC50 [1]: > 200 nM | DC50 [2]: > 200 nM
